{"source": "patent US12708625B2", "about": "“Pharmaceutical composition for improving or treating post-surgical hypoparathyroidism and treatment method using the same” (DONGGUK UNIVERSITY INDUSTRY-ACADEMIC COOPERATION FOUNDATION, priority 2019, dated 2026)", "format_in_all_cases": "in vivo, rat", "key": {"[1]": {"tested_on": "total parathyroidectomy and auto-transplantation model", "experiment": "Administration of AXT914 in total parathyroidectomy and auto-transplantation model (Experimental Schedule 2): serum PTH, calcium, phosphorus", "conditions": "10 mg/kg oral once daily 3 weeks", "method": "(§1) 9-week-old female Wistar rats were purchased from Koatech Co., Ltd. (Korea), and housed in an SPF room at a temperature of 21 to 23° C. and a humidity of 40 to 60% using a standard cage and under 12 hours cycles of light and darkness. The rats were acclimatized to the room for 1 week while being fed with a standard laboratory feed, and then used in the experiment. All care and experiments of experimental animals were performed following the guidelines by Animal Research Institute of Medical Science at Dongguk University, and the experimental schedule was approved by the Animal Institutional Review Board (AIRB No. 2016-04149 and AIRB No. 2019-07188).\n(§2) To construct a post-surgical hypoparathyroidism rat model, 10-week-old rats acclimatized for 1 week were used.\n(§3) To identify the parathyroid gland, a photosensitization method using 5-aminolevulinic acid hydrochloride (5-ALA) was performed. Briefly, a 50 mg/mL 5-ALA solution was prepared by suspending a 5-ALA powder (Sigma-Aldrich Korea, 5-aminolevulinic acid, #A3785, purity ≥98%) in a 0.9% NaCl solution. The rats were injected intraperitoneally with 500 mg/kg of the 5-ALA solution and after 2 hours, intramuscularly with Zoletil 50 (Virbac Laboratories, France) (0.1 mL/kg of body weight) and Rompun® (Bayer, Germany) (0.1 mL/kg of body weight). The anesthetized rats were laid down and the anterior neck and chest area were disinfected with povidone-iodine. In the surgical procedure, the trachea and the thyroid glands were exposed by incising the skin longitudinally from the midline of the neck. Both parathyroid glands showing a red fluorescent color were identified using blue light with a wavelength of 405±3 nm (Ergonomic LED Light Sources, Ocean Optics Inc., #LS-405, USA). In the case of the hemi-parathyroidectomy model, only one of both the parathyroid glands was removed. In the case of total parathyroidectomy and auto-transplantation model, both the parathyroid glands were removed, and then cut into small pieces, put into a small pocket made in the right sternocleidomastoid muscle (SCM), and the pocket was sutured with a […].\n(§4) AXT914 was obtained by Novartis Pharma AG (Switzerland). The AXT914 was prepared in the form of a microemulsion by the following method. Briefly, after Cremophor RH40 was heated to 65° C. with stirring, the Cremophor RH40, Capmul MCM, triethyl citrate, and ethanol absolute were mixed at a weight ratio of 34.6%, 42%, 8.4%, and 10%, respectively. After a clear solution obtained by stirring the mixture for 1 hour was used as a vehicle and mixed with AXT914 (weight ratio of 5%), the resulting mixture was stirred at an ambient temperature for 8 to 12 hours. A finally obtained microemulsion preconcentrate was diluted 10 folds with deionized water (DW) and mixed vigorously before administration.\nReferring to FIG. 1b, rats that had undergone total parathyroidectomy and auto-transplantation were divided into a vehicle administration group (n=8) and an AXT914 administration group (n=8). A sham surgery group (n=6), which had undergone sham surgery, was also prepared. One week after the surgery, the AXT914 prepared in 1-3. was orally administered to the rats once daily for 3 weeks using a zonde needle, and the rats were sacrificed 1 week after the completion of administration and used for analysis. 10 mg/kg of AXT914 was administered to the AXT914 administration group. The vehicle was orally administered to the vehicle administration group and the sham surgery group. Blood was collected from the tails of the rats before the administration of drug (baseline) and from the tails of the rats on Day 21 and Day 28 after the start of drug administration.\nSerum samples obtained by centrifugation of BD Microtainer SSTTM (prod. No. REF 365967, Becton Dickinson) containing blood, and were stored in a −80° C. deep freezer. […]"}, "[2]": {"tested_on": "total parathyroidectomy and auto-transplantation model", "experiment": "H&E staining of transplanted parathyroid tissue in SCM, total parathyroidectomy and auto-transplantation model (Experimental Schedule 3)", "conditions": "Day 18, vs vehicle administration group", "method": "as §1, §2\nTo identify the parathyroid gland, a photosensitization method using 5-aminolevulinic acid hydrochloride (5-ALA) was performed. Briefly, a 50 mg/mL 5-ALA solution was prepared by suspending a 5-ALA powder (Sigma-Aldrich Korea, 5-aminolevulinic acid, #A3785, purity ≥98%) in a 0.9% NaCl solution. The rats were injected intraperitoneally with 500 mg/kg of the 5-ALA solution and after 2 hours, intramuscularly with Zoletil 50 (Virbac Laboratories, France) (0.1 mL/kg of body weight) and Rompun® (Bayer, Germany) (0.1 mL/kg of body weight). […]"}, "[3]": {"tested_on": "hemi-parathyroidectomy model", "experiment": "Administration of AXT914 in hemi-parathyroidectomy model (Experimental Schedule 1): serum PTH, calcium, phosphorus, urine calcium/creatinine", "conditions": "for urine calcium/creatinine ratio: 24 h urine on Day 13", "method": "as §1, §2, §3, §4\nReferring to FIG. 1a, rats that had undergone hemi-parathyroidectomy were divided into a vehicle administration group (n=11), an AXT914 administration group 1 (n=10), and an AXT914 administration group 2 (n=11). A sham surgery group (n=9), which had undergone sham surgery, was also prepared. One week after the surgery, the AXT914 prepared in 1-3. was orally administered to the rats once daily for 2 weeks using a zonde needle. 5 mg/kg and 10 mg/kg of the AXT914 were administered to AXT914 administration groups 1 and 2, respectively. The vehicle (a mixture mixed with AXT914 in 1-3.) was orally administered to the vehicle administration group and the sham surgery group. Urine of the rats was collected for 24 hours on Day 13 after the start of drug administration. Blood was collected from the tails of the rats before the administration of drug (baseline) and from the tails of the rats at 0, 30, 120, 240, 360, and 720 minutes on Day 14 after the start of drug administration, and the rats were sacrificed. […]"}, "[4]": {"tested_on": "total parathyroidectomy and auto-transplantation model", "experiment": "Immunohistochemical staining of transplanted parathyroid tissue in SCM, total parathyroidectomy and auto-transplantation model (Experimental Schedule 3)", "conditions": "Day 18; for expression of Ki67 (marker of cell proliferation) in transplanted parathyroid tissue: between administration groups", "method": "as §1, §2, §3, §4\nReferring to FIG. 1c, rats that had undergone total parathyroidectomy and auto-transplantation were divided into a vehicle administration group (n=11), an AXT914 administration group 1 (n=11), and an AXT914 administration group 2 (n=11). A sham surgery group (n=7), which had undergone sham surgery, was also prepared. Six days after the surgery, the AXT914 prepared in 1-3. was orally administered to the rats once daily every 5 days weekly for 18 days using a zonde needle, and the rats were sacrificed on Day 18 of the completion of administration and used for analysis. 10 mg/kg and 20 mg/kg of the AXT914 were orally administered to AXT914 administration groups 1 and 2, respectively. The vehicle was orally administered to the vehicle administration group and the sham surgery group. Blood was collected from the tails of the rats before the administration of drug (baseline) and collected from the tails of the rats on Day 18 of the completion of drug administration. A histological analysis was performed by sacrificing the rats to isolate SCMs with parathyroid glands autotransplanted. […]"}, "[5]": {"conditions": "Day 21, vs vehicle administration group"}, "[6]": {"conditions": "Day 28 (7 days after drug discontinuation), vs vehicle administration group"}, "[7]": {"conditions": "10 mg/kg oral 5 days weekly for 18 days, vs vehicle administration group"}, "[8]": {"conditions": "20 mg/kg oral 5 days weekly for 18 days, vs vehicle administration group"}}, "data": [{"compound": "C#CCOc1ccc2c(c1)c(-c1ccc(C(C)C)cc1)nc(=O)n2Cc1ccc(Br)cc1", "note": "[AXT914]", "values": [{"measurement": "serum PTH level", "setting": "[1]; Day 21, vs sham surgery group", "value": "lower than those in the sham surgery group"}, {"measurement": "serum calcium level", "setting": "[1]; Day 21, vs sham surgery group", "value": "no difference from those in the sham surgery group"}, {"measurement": "serum phosphorus level", "setting": "[1]; Day 21, vs sham surgery group", "value": "no difference from those in the sham surgery group"}, {"measurement": "serum PTH level", "setting": "[1]; [5]", "value": "significantly higher than those in the vehicle administration group"}, {"measurement": "serum calcium level", "setting": "[1]; [5]", "value": "significantly higher than those in the vehicle administration group"}, {"measurement": "serum phosphorus level", "setting": "[1]; [5]", "value": "significantly lower than those in the vehicle administration group"}, {"measurement": "serum calcium level", "setting": "[1]; Day 28 (7 days after drug discontinuation), vs sham surgery group", "value": "lower than those in the sham surgery group"}, {"measurement": "serum calcium level", "setting": "[1]; [6]", "value": "still higher than those in the vehicle administration group"}, {"measurement": "serum phosphorus level", "setting": "[1]; [6]", "value": "lower than those in the vehicle administration group, but there was no statistical difference"}, {"measurement": "area increase of transplanted parathyroid tissue (H&E staining)", "setting": "[2]; 10 mg/kg oral 5 days weekly for 18 days (group 1)", "value": 36, "unit": "%"}, {"measurement": "area increase of transplanted parathyroid tissue (H&E staining)", "setting": "[2]; 20 mg/kg oral 5 days weekly for 18 days (group 2), significant", "value": "about 3 times"}, {"measurement": "serum PTH level", "setting": "[3]; 5 mg/kg oral once daily 2 weeks (group 1), Day 14, 120 minutes, vs vehicle administration group", "value": "higher than that of the vehicle administration group"}, {"measurement": "serum PTH level", "setting": "[3]; 5 mg/kg oral once daily 2 weeks (group 1), Day 14, vs sham surgery group", "value": "no statistical difference from the sham surgery group"}, {"measurement": "serum calcium level", "setting": "[3]; 5 mg/kg oral once daily 2 weeks, Day 14, all times, vs vehicle administration group", "value": "significantly higher calcium levels than those of the vehicle administration group"}, {"measurement": "serum phosphorus level", "setting": "[3]; 5 mg/kg oral once daily 2 weeks, Day 14, vs sham surgery group", "value": "no statistical difference from the sham surgery group"}, {"measurement": "serum calcium level", "setting": "[3]; 5 mg/kg oral once daily 2 weeks, Day 14 at 0, 30 and 720 minutes, vs sham surgery group", "value": "no statistical difference from those of the sham surgery group"}, {"measurement": "serum phosphorus level", "setting": "[3]; 5 mg/kg oral once daily 2 weeks, Day 14 at 30, 120 and 360 minutes, vs vehicle administration group", "value": "significantly lower"}, {"measurement": "urine calcium/creatinine ratio", "setting": "[3]; 5 mg/kg oral once daily, vs sham surgery group", "value": "no difference between the sham surgery group and the AXT914 administration groups"}, {"measurement": "urine calcium/creatinine ratio", "setting": "[3]; 5 mg/kg oral once daily, vs vehicle administration group", "value": "vehicle administration group had a significantly higher urine calcium/creatinine ratio than the sham surgery group and the AXT914 administration groups"}, {"measurement": "serum PTH level", "setting": "[3]; 10 mg/kg oral once daily 2 weeks (group 2), Day 14, all times, vs the other groups", "value": "significantly higher than those in the other groups"}, {"measurement": "serum calcium level", "setting": "[3]; 10 mg/kg oral once daily 2 weeks, Day 14, all times, vs vehicle administration group", "value": "significantly higher calcium levels than those of the vehicle administration group"}, {"measurement": "serum phosphorus level", "setting": "[3]; 10 mg/kg oral once daily 2 weeks, Day 14, vs sham surgery group", "value": "no statistical difference from the sham surgery group"}, {"measurement": "serum calcium level", "setting": "[3]; 10 mg/kg oral once daily 2 weeks, Day 14 at 0 and 30 minutes, vs sham surgery group", "value": "no statistical difference from those of the sham surgery group"}, {"measurement": "serum phosphorus level", "setting": "[3]; 10 mg/kg oral once daily 2 weeks, Day 14 at 30, 240, 360 and 720 minutes, vs vehicle administration group", "value": "significantly lower"}, {"measurement": "urine calcium/creatinine ratio", "setting": "[3]; 10 mg/kg oral once daily, vs sham surgery group", "value": "no difference between the sham surgery group and the AXT914 administration groups"}, {"measurement": "urine calcium/creatinine ratio", "setting": "[3]; 10 mg/kg oral once daily, vs vehicle administration group", "value": "vehicle administration group had a significantly higher urine calcium/creatinine ratio than the sham surgery group and the AXT914 administration groups"}, {"measurement": "expression of Ki67 (marker of cell proliferation) in transplanted parathyroid tissue", "setting": "[4]; 10 mg/kg oral 5 days weekly for 18 days", "value": "not different between the administration groups"}, {"measurement": "FGF2 positive cells in transplanted parathyroid tissue", "setting": "[4]; [7]", "value": "not statistically significant, but showed an increasing pattern"}, {"measurement": "increase in the expression of VEGFA in transplanted parathyroid tissue", "setting": "[4]; [7]", "value": "about 6 fold"}, {"measurement": "increase of expression level of PTH in transplanted parathyroid tissue", "setting": "[4]; [7]", "value": "about 2 fold"}, {"measurement": "increase of number of CD31 positive cells in transplanted parathyroid tissue", "setting": "[4]; [7]", "value": "about 3 folds"}, {"measurement": "expression of Ki67 (marker of cell proliferation) in transplanted parathyroid tissue", "setting": "[4]; 20 mg/kg oral 5 days weekly for 18 days", "value": "not different between the administration groups"}, {"measurement": "FGF2 positive cells in transplanted parathyroid tissue", "setting": "[4]; [8]", "value": "not statistically significant, but showed an increasing pattern"}, {"measurement": "expression of MCL1 in transplanted parathyroid tissue", "setting": "[4]; [8]", "value": "not statistically significant in AXT914 administration group 2, but showed an increasing pattern"}, {"measurement": "increase in the expression of VEGFA in transplanted parathyroid tissue", "setting": "[4]; [8]", "value": "about 10 fold"}, {"measurement": "increase of expression level of PTH in transplanted parathyroid tissue", "setting": "[4]; [8]", "value": "about 2 fold"}, {"measurement": "increase of number of CD31 positive cells in transplanted parathyroid tissue", "setting": "[4]; [8]", "value": "about 4.5 folds"}]}]}
